Numbered stars: 1 amine (or outer) side, 2 acyl side, 3 side chain; on linkers, the order of the positions; unused ones are H or OH. Bridge positions count the residues as written; N and C are the ends. Square brackets hold non-standard residues; d marks the D form. Peptide text beside a SMILES is read from it. I, II: the chains in the order shown. Actinocin(9to1) = Cc1c2oc3c(C)ccc(C(=O)[*:1])c3nc-2c(C(=O)[*:2])c(N)c1=O; NMeV = CN[C@H](C(=O)O)C(C)C; Sar = CNCC(=O)O
Tests used:
[1] = tested on: embryos; experiment: Prevention of camptothecin damage to embryo development in rats; assay type: in vivo, rat; conditions: embryos at days 14-15
Method: The ability of compounds of the present invention to prevent the damaging effects of drugs on embryonic development was examined in rats. Female rats were treated with camptothecin (CPT) (5 mg/kg), an anti-cancer drug, and then injected with Compound 68 (6 mg/kg) or vehicle (0.1%). Embryos were removed at days 14-15 of pregnancy and examined for damage.

[2] = tested on: C. elegans; experiment: Lifespan extension of nematodes (C. elegans); assay type: in vivo; conditions: for Lifes pan ext. %: nematodes grown with compound at 50 micromolar; for Lifes pan ext. % / Lifespan %: mean lifespan versus control; for Lifespan % / Lifespan extension (%): 50 micromolar; for Lifespan extension (%): Table 2, versus untreated controls
Method: Nematodes (C. elegans) were administered tri-phenyl telomerase-activating compounds presented in the following tables, and telomerase activity and/or expression was measured in terms of nematode lifespan extension. Nematodes were grown with the activators at 50 micromolar concentration, and the mean, maximum and half-life for Compound 68 and Compound 77, two representative molecules, was measured versus that of the control (FIG. 8). Values represent mean lifespan.
Survival of the C. elegans, a nematode that normally survives for 12-14 days, represents an acceptable model for studying life extension. Nematodes were administered tri-phenyl telomerase-activating compounds and their effect on the nematode lifespan extension was determined. Nematodes were grown with the activators at a concentration of 50 micromolar, and mean, maximum and half-life were measured in comparison with untreated controls. Lifespan increased by 13-43% (Table 2), and the median lifespan increased approximately 2-fold (from 12 days to 22 days, as shown in FIG. 8).

[3] = molecular target: telomerase (Homo sapiens, UniProt O14746); experiment: Telomerase activity in RPE cells (quantitative telomerase detection kit, real time PCR); assay type: cell-based; design: endogenous in cells; host or cells: human retinal pigmented epithelial (RPE) cells; conditions: FIG. 7B
Chain of telomerase (Homo sapiens, UniProt O14746) (O14746 whole entry): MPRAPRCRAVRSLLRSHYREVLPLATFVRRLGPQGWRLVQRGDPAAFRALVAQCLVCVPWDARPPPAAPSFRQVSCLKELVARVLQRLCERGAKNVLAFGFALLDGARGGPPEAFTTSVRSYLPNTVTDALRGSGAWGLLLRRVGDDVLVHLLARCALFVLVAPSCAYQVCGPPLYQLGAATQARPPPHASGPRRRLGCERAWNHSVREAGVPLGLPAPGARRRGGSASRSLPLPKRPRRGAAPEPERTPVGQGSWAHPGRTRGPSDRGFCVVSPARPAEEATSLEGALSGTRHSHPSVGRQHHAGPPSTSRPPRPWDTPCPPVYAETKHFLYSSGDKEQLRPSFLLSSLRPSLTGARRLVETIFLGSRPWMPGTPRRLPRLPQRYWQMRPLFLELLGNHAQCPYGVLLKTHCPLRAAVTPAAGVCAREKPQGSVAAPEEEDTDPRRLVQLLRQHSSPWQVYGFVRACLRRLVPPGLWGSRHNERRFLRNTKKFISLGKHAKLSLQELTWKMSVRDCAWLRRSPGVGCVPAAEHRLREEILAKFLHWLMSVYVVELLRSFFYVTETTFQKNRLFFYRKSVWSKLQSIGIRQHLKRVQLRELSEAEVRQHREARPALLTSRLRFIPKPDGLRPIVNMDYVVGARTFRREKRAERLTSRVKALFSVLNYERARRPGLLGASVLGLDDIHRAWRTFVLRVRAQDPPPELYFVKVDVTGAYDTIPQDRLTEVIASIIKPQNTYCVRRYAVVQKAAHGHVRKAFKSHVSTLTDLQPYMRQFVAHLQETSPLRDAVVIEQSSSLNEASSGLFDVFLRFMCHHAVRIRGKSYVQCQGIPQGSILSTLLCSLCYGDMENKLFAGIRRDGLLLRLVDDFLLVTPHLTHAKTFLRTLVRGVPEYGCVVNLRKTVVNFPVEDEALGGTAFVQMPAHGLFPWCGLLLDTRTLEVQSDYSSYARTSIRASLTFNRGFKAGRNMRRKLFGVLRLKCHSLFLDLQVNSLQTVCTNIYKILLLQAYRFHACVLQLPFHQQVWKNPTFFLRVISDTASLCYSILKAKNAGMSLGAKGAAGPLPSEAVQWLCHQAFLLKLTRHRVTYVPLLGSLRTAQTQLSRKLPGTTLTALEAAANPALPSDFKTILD
From the text: FIG. 7: A. The effect of compounds of the present invention on human retinal pigmented epithelial cells under oxidative stress. B. The effect of compounds on telomerase activity in RPE cells (measured by a quantitative telomerase detection kit-real time PCR).
Chronic exposure of human retinal pigmented epithelial (RPE) cells to oxidative stress predisposes them to the development of age-related macular degeneration (AMD). Human RPE cells were exposed to oxidative stress by treatment with H2O2 (1 mM) for 24 hours, and H2O2 (0.5 mM) for another 24 hours. The cells were then treated daily for two days with the indicated compounds in the absence of H2O2. Increased cell growth was observed as a consequence of treatment with the compounds (FIG. 7A). Telomerase activity was enhanced in RPE cells treated with compounds 68 and 79 by 30- and 50-fold, respectively (FIG. 7B).

[4] = tested on: telomerase protein; experiment: Western blot of telomerase protein level in treated glioblastoma cells; assay type: cell-based, human; conditions: 1 μM single dose
Method: The effect of compounds of the present invention on the level of telomerase protein and of long-term treatment of a single dose of Compound 68 on telomerase was tested by exposing cells for various intervals (3-24 h) to 1 μM of the compound and detecting telomerase protein level by western blot analysis with anti-telomerase antibody. […] A time-dependent increase in telomerase was observed, with activation peaking at […] of treatment, and then gradually decreasing.

[5] = tested on: telomerase; experiment: Activation of telomerase expression in rat endometrial cells after subcutaneous injection; assay type: in vivo; conditions: 6 mg/kg subcutaneously, 24 h
Method: Female rats in diestrus (the stage at which the epithelial layer in the rat endometrium undergoes degradation) were injected subcutaneously with 6 mg/kg of Compound 68, or with a vehicle. The rats were sacrificed 24 h later and endometrial sections were prepared from the uterine horns of treated and untreated rats and analyzed by histological procedures and by immunohistochemical staining Endometrial slices were stained by hematoxylin-eosin. […] In addition, morphologically, the endometrial tissue resembled the structure of the proliferating stages (proestrus and estrus) (FIG. 9A,B). Activation of telomerase expression in the endometrial cells of treated rats was examined by immunohistochemistry with anti-telomerase antibody (FIG. 9C-F). […] In addition, telomerase activity was measured in nuclear extracts derived from the endometrium of the various treatment groups. […] In some embodiments of the invention, the data support a role for the treatment of endometriosis with the compounds of this invention.

[6] = tested on: telomerase mRNA; experiment: Northern blot of telomerase mRNA with hTERT probe; assay type: cell-based, human
Method: Experiments were also performed to determine the effect of compounds of the present invention on the telomerase mRNA level (including the full and spliced variant telo-mRNAs). Cells were treated with a single dose of […] Compound 68 for various intervals (1-24 h). Total RNA extracts were prepared, and equal RNA concentrations were analyzed by northern blotting with a specific hTERT probe. […] The increased expression of telomerase was specific since no effect on GAPDH mRNA was observed (lower panel).

[7] = Solubility noted at synthesis; assay type: physicochemical

## CC[C@@]1(O)C(=O)OCc2c1cc1n(c2=O)Cc2cc3ccccc3nc2-1 [CPT, camptothecin, reference compound]
[1]; CPT 5 mg/kg plus vehicle
  embryo development after CPT only: evidence of abnormal development

## CC(c1ccc(O)cc1)(c1ccc(O)cc1)c1ccc(O)cc1 [Compound 1]
[2]
  Lifes pan ext. %: 30%

## COc1ccc(C(C)(c2ccc(OC)cc2)c2ccc(OC)cc2)cc1 [Compound 5]
[2]
  Lifes pan ext. %: 12%

## Cc1ccc(C(C)(c2ccccc2)c2ccccc2)cc1 [Compound 10]
[2]
  Lifes pan ext. %: −1%

## Cc1ccc(C(C)(c2ccc(C)cc2)c2ccc(C)cc2)cc1 [Compound 22]
[2]
  Lifes pan ext. %: 21%

## COc1ccc(C(C)(c2ccc(-c3cccc4ccccc34)cc2)c2ccc(C3c4ccccc4-c4ccccc43)cc2)cc1 (centres unmarked) [Compound 31]
[2]
  Lifes pan ext. %: 23%

## CC(c1ccccc1)(c1ccc(-c2cccc3ccccc23)cc1)c1ccc(C2c3ccccc3Oc3ccccc32)cc1 (centres unmarked) [Compound 33]
[2]
  Lifes pan ext. %: −26%

## CCOC(=O)COc1ccc(C(C)(c2ccc(OCC(=O)OCC)cc2)c2ccc(OCC(=O)OCC)cc2)cc1 [Compound 42]
[2]
  Lifes pan ext. %: −7%

## CC(c1ccccc1)(c1ccccc1)c1ccccc1 [Compound 49]
[2]
  Lifes pan ext. %: 16%

## COc1ccc(C(c2ccc(-c3c[nH]c4ccccc34)cc2)c2ccc(-c3c[nH]c4ccccc34)cc2)cc1 [Compound 50]
[2]
  Lifes pan ext. %: 4%

## CC(c1ccc(O)cc1)(c1ccc(O)cc1)c1ccc(-c2ccncc2)cc1 [Compound 53]
[2]
  Lifes pan ext. %: 13%

## CC(c1ccc(O)cc1)(c1ccc(O)cc1)c1ccc(-c2cccnc2)cc1 [Compound 54]
[2]
  Lifes pan ext. %: 15%

## Oc1ccc(P(c2ccc(O)cc2)c2ccc(O)cc2)cc1 [Compound 60]
[2]; table of scaffold drawing 35
  Lifespan %: −2%

## O=P(c1ccc(O)cc1)(c1ccc(O)cc1)c1ccc(O)cc1 [Compound 61]
[2]
  Lifespan extension (%): 30%
[2]; table of scaffold drawing 35
  Lifespan %: 30%

## COc1ccc(P(c2ccc(OC)cc2)c2ccc(OC)cc2)cc1 [Compound 62]
[2]
  Lifespan extension (%): 29%
[2]; table of scaffold drawing 35
  Lifespan %: 29%

## COc1ccc(P(=O)(c2ccc(OC)cc2)c2ccc(OC)cc2)cc1 [Compound 63]
[2]; table of scaffold drawing 35
  Lifespan %: 0%

## c1ccc(P(c2ccccc2)c2ccccc2)cc1 [Compound 64]
[2]; table of scaffold drawing 35
  Lifespan %: 19%

## Cc1ccc(P(c2ccc(C)cc2)c2ccc(C)cc2)cc1 [Compound 65]
[2]; table of scaffold drawing 35
  Lifespan %: 42%

## Brc1ccc(N(c2ccc(Br)cc2)c2ccc(Br)cc2)cc1 [Compound 66]
[2]; table of scaffold drawing 35
  Lifespan %: 19%

## CC(c1cc(Br)c(O)c(Br)c1)(c1cc(Br)c(O)c(Br)c1)c1cc(Br)c(O)c(Br)c1 [Compound 68, 1,1,1-tris(4-hydroxy-3,5-dibromo-phenyl)-ethane]
[3]
  enhancement of telomerase activity in RPE cells: 30 fold
[2]
  Lifespan extension (%): 13%
[2]; table of scaffold drawing 36
  Lifespan %: 13%
[4]
  time of peak telomerase activation: 1 to 3 h
[4]; 3-24 h, western blot
  telomerase protein level: increased telomerase protein level
[4]; 24 h
  level of telomerase compared to vehicle-treated cells after 24 h: only slightly higher
[1]; CPT 5 mg/kg then compound 6 mg/kg
  embryo development after CPT plus compound: developed normally
[5]
  staining of telomerase in the endometrial tissue (immunohistochemistry): significant increase
[5]; female rats in diestrus
  degradation of the endometrial epithelial layer: prevented the degradation of the endometrial epithelial layer
[6]; single dose of 1 mM, 1-24 h
  level of telomerase full-length and splice variant mRNA, fold of control: up to 4.5 fold

## CC(c1ccc(O)c(Br)c1)(c1ccc(O)c(Br)c1)c1ccc(O)c(Br)c1 [Compound 69]
[2]; table of scaffold drawing 36
  Lifespan %: −5%

## COc1c(Br)cc(C(C)(c2cc(Br)c(OC)c(Br)c2)c2cc(Br)c(OC)c(Br)c2)cc1Br [Compound 70]
[2]; table of scaffold drawing 36
  Lifespan %: 41%

## CC(c1ccc(O)c([N+](=O)[O-])c1)(c1ccc(O)c([N+](=O)[O-])c1)c1ccc(O)c([N+](=O)[O-])c1 [Compound 71]
[2]; table of scaffold drawing 36
  Lifespan %: 8%

## COc1ccc(C(C)(c2ccc(OC)c([N+](=O)[O-])c2)c2ccc(OC)c([N+](=O)[O-])c2)cc1[N+](=O)[O-] [Compound 72]
[2]; table of scaffold drawing 36
  Lifespan %: 4%

## COc1c(I)cc(C(C)(c2cc(I)c(OC)c(I)c2)c2cc(I)c(OC)c(I)c2)cc1I [Compound 73]
[2]; table of scaffold drawing 36
  Lifespan %: −7%

## CN1CCN(Cc2cc(C(C)(c3cc(CN4CCN(C)CC4)c(O)c(CN4CCN(C)CC4)c3)c3cc(CN4CCN(C)CC4)c(O)c(CN4CCN(C)CC4)c3)cc(CN3CCN(C)CC3)c2O)CC1 [Compound 78]
[2]
  Lifespan extension (%): 36%
[2]; table of scaffold drawing 36
  Lifespan %: 36%
[7]; ethanol
  solubility in ethanol: Soluble
[7]; water
  solubility in water: very good solubility

## Cc1c2oc3c(C)ccc(C(=O)N[C@@H]4C(=O)N[C@H](C(C)C)C(=O)N5CCC[C@H]5C(=O)N(C)CC(=O)N(C)[C@@H](C(C)C)C(=O)O[C@@H]4C)c3nc-2c(C(=O)N[C@@H]2C(=O)N[C@H](C(C)C)C(=O)N3CCC[C@H]3C(=O)N(C)CC(=O)N(C)[C@@H](C(C)C)C(=O)O[C@@H]2C)c(N)c1=O [actinomycin D, reference compound] (I: T[dV]P[Sar][NMeV] / II: T[dV]P[Sar][NMeV]; ester I:1-I:C, II:1-II:C; linker I:N-II:N via Actinocin(9to1))
[6]; added for 3 h during treatment with Compound 68
  effect of addition during compound treatment on activation of telomerase expression: abolished the activation of telomerase expression

— patent US9670139B2, “Telomerase activating compounds and methods of use thereof” (BEN-GURION UNIVERSITY OF THE NEGEV RESEARCH AND DEVELOPMENT …, priority 2007, dated 2017)
